Counter-ions that a name gives are not always drawn. Like-named read-outs stand apart in the source and are kept apart here.
Assays:
physchem = test: physchem
Text: (§1) Condition A: For the Measurement of the Assay of Acid Addition Salt of Clopidogrel
(§2) Column: Kromasil C18, 5 μm (250 mm×4.6 mm)
(§3) Mobile phase: Na2HPO4—NaH2PO4 buffer solution:TBF:CH3CN=5:2:3 (v/v)
The camphorsulfonate polymorphic form A1 obtained in Example 1, the camphorsulfonate polymorphic form B1 obtained in Example 2, the hydrogen sulfate obtained in Comparative Example 1 and the benzenesulfonate obtained in Comparative Example 2 were each dissolved in unionized water until saturated. The amounts of clopidogrel in the resulting solutions were measured under HPLC condition A, and the results are shown in Table 5.

[1] = for Amount of acid addition salts of clopidogrel / Amount of hydrolyzed impurities / Amount of levorotatory isomers / Water content: 60±2° C., 75±5% relative humidity; for water content / hygroscopicity under accelerated condition: 60° C. and 75% relative humidity for a period of over 28 days
Procedure: as §1, §2, §3
Condition B: For the Measurement of the Amount of Hydrolyzed Impurities of Acid Addition Salt of Clopidogrel
Column: Capcellpak C18 MG, 5 μm (250 mm×4.6 mm)
Mobile phase: KH2PO4 buffer solution/CH3CN (70/30):KH2PO4 buffer solution/CH3CN (30/70)=0:100→[…] (v/v, gradient elution)
Condition C: For the Measurement of the Optical Purity of Acid Addition Salt of Clopidogrel
Column: Chiralpak AD, 5 μm (250 mm×4.6 mm)
Mobile phase: n-hexane:isopropanol=90:10 (v/v)
The camphorsulfonate polymorphic form A1 obtained in Example 1, the camphorsulfonate polymorphic form B1 obtained in Example 2, the hydrogen sulfate obtained in Comparative Example 1 and the benzenesulfonate obtained in Comparative Example 2 were each subjected to a condition of 60±2° C. and 75±5% relative humidity for a period of 28 days to test their stabilities. The changes of the assay of the acid addition salts of clopidogrel, and the amounts of hydrolyzed impurities and levorotatory isomers thereof and the water content thereof were measured at 7, 14, 21 and 28 days relative to that of the initial day (0) using HPLC. The results are shown in Tables 6 to 9 and FIGS. 12 to 15, respectively.

[2] = dissolved in unionized water until saturated, HPLC condition A

Water-solubility (physchem; [2])	Amount of acid addition salts of clopidogrel ([1]; 0 day)	Amount of hydrolyzed impurities ([1]; 0 day)	Amount of levorotatory isomers ([1]; 0 day)	Water content ([1]; 0 day)	Amount of acid addition salts of clopidogrel ([1]; 7 days)	Amount of hydrolyzed impurities ([1]; 7 days)	Amount of levorotatory isomers ([1]; 7 days)	Water content ([1]; 7 days)	Amount of acid addition salts of clopidogrel ([1]; 14 days)	Amount of hydrolyzed impurities ([1]; 14 days)	Amount of levorotatory isomers ([1]; 14 days)	Water content ([1]; 14 days)	Water content ([1]; 21 days)	Amount of acid addition salts of clopidogrel ([1]; 28 days)	Amount of hydrolyzed impurities ([1]; 28 days)	Amount of levorotatory isomers ([1]; 28 days)	Water content ([1]; 28 days)	Compound	water content / hygroscopicity under accelerated condition [1]	also measured
7.42 mg/ml, as clopidogrel	99.2%	0.03%	0.01%	0.2%	98.8%	0.72%	0.05%	0.3%	97.5%	2.15%	0.19%	0.8%	2.8%	80.5%	16.49%	1.53%	7.3%	COC(=O)[C@H](c1ccccc1Cl)N1CCc2sccc2C1 [Hydrogen sulfate, Clopidogrel hydrogen sulfate, reference compound]	–	–
3.98 mg/ml, as clopidogrel	99.6%	0.01%	0.01%	0.1%	99.2%	0.01%	0.01%	0.1%	99.9%	0.02%	0.02%	0.1%	0.1%	99.3%	0.03%	0.03%	0.1%	COC(=O)[C@H](c1ccccc1Cl)N1CCc2sccc2C1 [Camphorsulfonate (polymorphic form B1), clopidogrel (+)-(1S)-camphor-10-sulfonate]	almost maintain their original water contents	Water-solubility (physchem; measured in a saturated aqueous solution): around 4.0 mg/ml
4.04 mg/ml, as clopidogrel	99.2%	0.01%	0.02%	0.0%	99.1%	0.08%	0.02%	0.1%	99.6%	0.15%	0.02%	0.0%	0.0%	99.1%	0.17%	0.02%	0.1%	COC(=O)C(c1ccccc1Cl)N1CCc2sccc2C1 (stereo in doubt) [Camphorsulfonate (polymorphic form A1), clopidogrel (−)-(1R)-camphor-10-sulfonate]	almost maintain their original water contents	solubility (physchem; unionized water, water, thermodynamic from solid): ~4000 µg/mL

Compound	Water-solubility (physchem; [2])	Amount of acid addition salts of clopidogrel ([1]; 0 day)	Amount of hydrolyzed impurities ([1]; 0 day)	Amount of levorotatory isomers ([1]; 0 day)	Water content ([1]; 0 day)	Amount of acid addition salts of clopidogrel ([1]; 7 days)	Amount of hydrolyzed impurities ([1]; 7 days)	Amount of levorotatory isomers ([1]; 7 days)	Water content ([1]; 7 days)	Amount of acid addition salts of clopidogrel ([1]; 14 days)	Amount of hydrolyzed impurities ([1]; 14 days)	Amount of levorotatory isomers ([1]; 14 days)	Water content ([1]; 14 days)	Water content ([1]; 21 days)	Amount of acid addition salts of clopidogrel ([1]; 28 days)	Amount of hydrolyzed impurities ([1]; 28 days)	Amount of levorotatory isomers ([1]; 28 days)	Water content ([1]; 28 days)	water content / hygroscopicity under accelerated condition [1]	also measured
Clopidogrel benzenesulfonate [reference compound]	4.74 mg/ml, as clopidogrel	99.3%	0.01%	0.01%	0.1%	93.9%	2.79%	0.81%	6.4%	80.5%	8.56%	2.49%	7.3%	9.2%	61.7%	25.33%	4.79%	9.4%	–	–

Reference: patent US20090209576A1, “PHARMACEUTICAL COMPOSITION CONTAINING CLOPIDOGREL CAMPHORSULFONATE OR POLYMORPHIC FORMS THEREOF” (HANMI PHARM. CO., LTD., priority 2006, published 2009)
